Source: patent publication US4529602A, “Method for treatment or prophylaxis of gastro-intestinal disease” (priority 1981, dated 1985)
Structures can show the parent of a compound that is named as a salt.

Assays:
rats = test: Acute oral toxicity in rats (Experiment 10); type: in vivo; conditions: male SD-strain rats, 7 days, hydrate, 10080 min
Procedure: (§1) After male SD-strain rats (6-7 weeks old) were starved for 20 hours, a solution or suspension of a test compound in distilled water was administered orally to the rats in an amount of one ml per 100 g of body weight. After administration of the test compound, the rats were allowed free access to water and food.

urinary electrolytes [1] = test: Effect on urine volume and urinary electrolytes (Experiment 7); type: in vivo, Male SD-strain rats; conditions: for Urine volume: 5 h, 2 rats per cage, control 12.3; for Na/K: 5 h urine, control 5.8
Procedure: Male SD-strain rats (6 to 7 weeks old) were starved overnight, and a physiological saline solution (3 ml/100 g of body weight) was orally administered to the rats. One hour later, a solution or suspension of a test compound in a 0.25% CMC-physiological saline solution was administered orally to the rats in an amount of 3 ml per 100 g of body weight (Dose: 50 and 500 mg/kg). Immediately after administration of the test compound, the rats were placed into metabolic cages (2 rats per cage) and deprived of water and food for 5 hours. The urine samples which were excreted during a 5 hour period were collected. Sodium and potassium in the urine were estimated by a flame photometer (Hitachi Model-205).

Shay rat ulcers = test: Effect on Shay rat ulcers (pylorus-ligated); type: in vivo, Male SD-strain rats; conditions: 17 h
Procedure: Male SD-strain rats (6 to 7 weeks old) were starved for 48 hours and then the pylori were ligated. Immediately after ligation, a solution or suspension of a test compound in distilled water was administered orally into the stomachs in an amount of 0.2 ml per 100 g of body weight (Dose: 200 or 300 mg/kg). Seventeen hours after the administration of the test compound, the degree of ulceration in forestomach was examined according to the method of Takagi et al (Chem. Pharm. Bull., 11(10), pp. 1282-1290 (1963)) with a modified scoring system. Depending on the diameter of each lesions, the ulcers were classified into the following 4 grades. Ulcer index was calculated by the sum of the number of ulcers in each degree multiplied by respective ulcer score. Further, based on the ulcer index determined above, the preventive effect of the test compound on Shay rat ulcer was calculated by the following formula: [formula] (Results)

gastric acid secretion = test: Preventive effect on gastric acid secretion in pylorus-ligated rats; type: in vivo, Male SD-strain rats; conditions: 100 mg/kg oral, 5 h after administration, hydrate
Procedure: (§2) Preventive effect on acid and pepsin secretions
(§3) Male SD-strain rats (6 to 7 weeks old) were starved for 48 hours, and then the pylori were ligated. Immediately after ligation, a solution or suspension of a test compound in distilled water was administered orally into the stomachs in an amount of 0.2 ml per 100 g of body weight (Dose: 100 mg/kg). Five hours after said administration of the test compound, the rats were sacrificed and the stomachs were removed. The gastric contents were centrifuged at 2,500 rpm for 10 minutes and the gastric juice was collected as the supernatant. The concentration of pepsin in the gastric juice was determined by Anson's method (c.f., J. Gen. Physiol., 22, pp. 77-89 (1938)) using hemoglobin as the substrate, and the preventive effect of the test compound on the pepsin secretion was estimated in terms of "decrease in pepsin concentration" according to the following formula: [formula]
On the other hand, the concentration of free acid in the gastric juice was determined by titrating said gastric juice to pH 7.0 with 0.1N NaOH, and the preventive effect of the test compound on the gastric acid secretion was estimated in terms of "the decrease in acidity of gastric juice" according to the following formula: [formula] (Results)

gastric mucus secretion = test: Effect on gastric mucus secretion (alcian blue binding); type: in vivo, Male Sprague-Dawley rats; conditions: 100 mg/kg oral, 1 h, hydrate; for Alcian blue binding: control (water) 198.5 ± 6.4
Procedure: Stimulating effect of a test compound on gastric mucus secretion was examined by the method of Corne et al. (J. Physiol., 242, pp. 116-117(1974); J. Pharm. Pharmacol., 33, pp. 348-352(1981)). Male Sprague-Dawley rats (6-7 weeks old; one group: 6 rats) were fasted for 20 hours before the experiments. Water was given ad libitum and coprophagy was prevented by using cages with wide-mesh floors. A test compound dissolved or suspended in distilled water was administered orally to the rats at a dose of 100 mg/kg. One hour after the administration of the test compound, the stomachs were dissected, opened along the greater curvature, rinsed in ice-cold 0.25M sucrose, and the rumen was discarded. Then, the stomachs were incubated in 10 ml of a 0.15M sucrose-0.05M sodium acetate solution (pH 5.8) containing alcian blue (1 mg/ml), at room temperature for 1.5 hours. Finally, the stomachs were placed in 15 ml of a 0.5M magnesium chloride solution for 2 hours with occasional shaking and then removed, and the magnesium chloride solution was shaken briefly with 10 ml of diethyl ether. The optical density of the aqueous layer was read at 605 nm, and the degree of alcian blue binding was expressed as μg alcian blue/g of tissue. The stimulating effect of the test compound on gastric mucus secretion was estimated in terms of "the increase in alcian blue binding" which was calculated by the following formula: [formula] (Results)

in vivo = conditions: mouse, oral, male ddY-strain mice, 7 days
Procedure: After male ddY-strain mice (4 weeks old) were starved for 4 hours, a suspension of a test compound in distilled water containing a small amount of Tween 80 was administered orally to the mice in an amount of 0.1 ml per 10 g of body weight. After administration of the test compound, the mice were allowed free access to water and food. […] As a result, the LD50 of sulfodehydroabietic acid calcium salt was more than 2,000 mg/kg.

pepsin secretion = test: Preventive effect on pepsin secretion in pylorus-ligated rats; type: in vivo, Male SD-strain rats; conditions: 100 mg/kg oral, 5 h after administration, hydrate
Procedure: as §2, §3

gastric mucous membrane = test: Protective effect on gastric mucous membrane (excised stomach in artificial gastric juice); set-up: species or system Male Sprague-Dawley rats; conditions: 37° C., 60 min; for Amount of tyrosine: control 2.42 ± 0.15; for Amount of tyrosine / Inhibition (%) of digestion of mucous membrane: hydrate
Procedure: Protective effect of a test compound on gastric mucous membrane was examined by the method of Diago et al. (Yakugaku Zasshi, 101, 452-457(1981)). Male Sprague-Dawley rats (6-7 weeks old; one group: 5 rats) were fasted for 20 hours before the experiments. Water was given ad libitum and coprophagy was prevented by using cages with wide-mesh floors. The stomach was excised, opened along the greater curvature, rinsed in physiological saline solution, and the rumen was discarded. The stomach was incubated in 10 ml of an artificial gastric juice (100 mM HCl, 0.3% pepsin, 0.2% NaCl) containing a test compound, at 37° C. for 60 minutes. After the incubation, 2 ml of 7% trichloroacetic acid were added to 0.5 ml of medium, and the mixture was centrifuged. The amount of tyrosine in the supernatant was measured by using Folin-Ciocelteu reagent (J. gen. Physiol., 16, 59-63(1932)), and expressed as mg tyrosine/g tissue. The protective effect of the test compound on gastric mucous membrane was estimated in terms of "the inhibition of digestion of mucous membrane" which was calculated by the following formula: [formula] (Results)

[2] = Acute oral toxicity in rats (Experiment 10); type: in vivo; conditions: rat, in vivo, male SD-strain rats, 7 days
Procedure: as §1

aspirin-induced ulcers = test: Effect on aspirin-induced ulcers; type: in vivo, Male Donryu-strain rats; conditions: p.o. 0.8 m mol./kg (400 mg/kg); aspirin 200 mg/kg
Procedure: Male Donryu-strain rats (8 to 9 weeks old) were starved overnight, and a solution or suspension of a test compound in distilled water was administered orally into the stomachs in an amount of one ml per 100 g of body weight. Half an hour later, a suspension of aspirin in 0.25% CMC solution was administered orally to the rats in an amount of 0.5 ml per 100 g of body weight (Dose: 200 mg/kg). Four hours after the administration of aspirin, the rats were sacrificed and the stomachs were removed and inflated by injecting 10 ml of 1% formalin solution to fix the inner layers of the gastric walls. The stomach was then incised along the greater curvature and the lengths of the lesions were measured and summated to give ulcer index (in mm) for each animal. The preventive effect of the test compound on aspirin-induced ulcers were calculated by the following formula: [formula] (Results)

urinary electrolytes [3] = test: Effect on urinary electrolytes (Experiment 9); type: in vivo, Male SD-strain rats; conditions: for Urine volume: 4 h, control 6.5 ± 0.3; for Na/K ratio: 4 h urine, control 5.8 ± 0.6
Procedure: Male SD-strain rats (6 to 7 weeks old, one group: 6 rats) were starved overnight, and a physiological saline solution (3 ml/100 g of body weight) was orally administered to the rats. One hour later, a suspension of a test compound in a physiological saline solution was administered orally to the rats in an amount of 3 ml per 100 g of body weight (Dose: 500 or 1,000 mg/kg). Immediately after administration of the test compound, the rats were placed into metabolic cages (one rat per cage) and deprived of water and food for 4 hours. The urine samples which were excreted during a 4 hour period were collected. Sodium and potassium in the urine were estimated by a flame photometer (Hitachi Model-205).

[4] = 1 mg/ml in artificial gastric juice
[5] = 4 mg/ml in artificial gastric juice

Compound: CC(C)c1cc2c(cc1S(=O)(=O)O)[C@@]1(C)CCC[C@@](C)(C(=O)O)[C@@H]1CC2 [Sulfodehydroabietic acid calcium salt, sulfodehydroabietic acid calcium salt 2.5 hydrate]
- LD50 (rats): > 2000 mg/kg
- Urine volume (urinary electrolytes [1]; 50 mg/kg oral): 11.5 mL
- Na/K (urinary electrolytes [1]; 50 mg/kg oral): 5.2
- Urine volume (urinary electrolytes [1]; 500 mg/kg oral): 11.3 mL
- Na/K (urinary electrolytes [1]; 500 mg/kg oral): 6.8
- Preventive effect on Shay rat ulcers (Shay rat ulcers; 300 mg/kg oral): 100%
- Decrease (%) in acidity of gastric juice (gastric acid secretion): 30%
- Alcian blue binding (gastric mucus secretion): 284.7 ± 14.9 μg/g tissue
- Increase (%) in alcian blue binding (gastric mucus secretion): 44%
- LD50 at 168 h (in vivo): > 2000 mg/kg
- Decrease (%) in pepsin concentration (pepsin secretion): 99%
- Amount of tyrosine (gastric mucous membrane; [4]): 1.72 ± 0.08 mg/g tissue
- Inhibition (%) of digestion of mucous membrane (gastric mucous membrane; [4]): 29%
- Amount of tyrosine (gastric mucous membrane; [5]): 0.86 ± 0.04 mg/g tissue
- Inhibition (%) of digestion of mucous membrane (gastric mucous membrane; [5]): 64%

Compound: CC(C)c1cc2c(cc1S(=O)(=O)O)[C@@]1(C)CCC[C@@](C)(C(=O)O)[C@@H]1CC2 [Sulfodehydroabietic acid monosodium salt, 1,4a-dimethyl-1-carboxy-6-sulfo-7-isopropyl-1,2,3,4,4a,9,10,10a-octahydro-phenanthrene monosodium salt 5 hydrate]
- LD50 at 168 h [2]: > 2000 mg/kg
- Preventive effect on aspirin-induced ulcers (aspirin-induced ulcers): 68%
- Urine volume (urinary electrolytes [3]; 500 mg/kg oral): 6.2 ± 0.5 mL
- Na/K ratio (urinary electrolytes [3]; 500 mg/kg oral): 5.6 ± 0.5
- Urine volume (urinary electrolytes [3]; 1000 mg/kg oral): 4.7 ± 0.4 mL
- Na/K ratio (urinary electrolytes [3]; 1000 mg/kg oral): 5.9 ± 0.2
- change in urinary sodium-potassium ratio (urinary electrolytes [3]; 500 or 1000 mg/kg oral, rats, in words): no substantial change in urinary sodium-potassium ratio
- Preventive effect on Shay rat ulcers (Shay rat ulcers; 200 mg/kg oral, hydrate): 100%
- Decrease (%) in acidity of gastric juice (gastric acid secretion): 43%
- Alcian blue binding (gastric mucus secretion): 287.3 ± 34.2 μg/g tissue
- Increase (%) in alcian blue binding (gastric mucus secretion): 45%
- Decrease (%) in pepsin concentration (pepsin secretion): 96%
- Amount of tyrosine (gastric mucous membrane; [4]): 1.61 ± 0.13 mg/g tissue
- Amount of tyrosine (gastric mucous membrane; [5]): 0.95 ± 0.07 mg/g tissue
- inhibition at 1000 µg/mL (gastric mucous membrane; Rattus norvegicus, 1 h, 1 mg/ml in artificial gastric juice, read-out: Inhibition (%) of digestion of mucous membrane): 33%
- inhibition at 4000 µg/mL (gastric mucous membrane; Rattus norvegicus, 1 h, 4 mg/ml in artificial gastric juice, read-out: Inhibition (%) of digestion of mucous membrane): 61%
